Laboratory results taken from article PMC11435065, “Inhibition of P-Glycoprotein Asymmetrically Alters the In Vivo Exposure Profile of SGC003F: A Novel Guanylate Cyclase Stimulator” (Pharmaceuticals, 2024).
Where two headings read alike, the source gives them in different places.

How the values were obtained:
[1] = In vitro metabolic stability in rat liver microsomes; assay type: in vitro ADME; conditions: 1 µM, up to 60 min, NADPH or UDPGA
Protocol: In vitro incubation dependent on NADPH: SGC003F was added into rat and human liver microsomes diluted in PBS (100 mM, pH 7.3). NADPH was introduced into the system. The NADPH had been pre-equilibrated under the same conditions for 5 min to initiate the enzymatic reaction. The incubation mixture was meticulously prepared to achieve the following final concentrations: 1 µM for SGC003F, 0.5 mg/mL for the liver microsomal protein, and 1 mM for NADPH.
In vitro incubation dependent on UDPGA: rat and human liver microsomes diluted in PBS (100 mM, pH 7.3) were mixed with alamethicin and then placed on ice for 15 min before the addition of the working solution of SGC003F. After preincubation in a water bath at 37 °C for 5 min, UDPGA, which had been preincubated for 5 min was added to initiate the reaction. The final concentrations in the incubation system were as follows: 1 μM for SGC003F, 0.5 mg/mL for liver microsomal protein concentration, 5 mM for UDPGA, and 25 μg/mL for alamethicin.
Positive probe substrate assays were utilized to ensure normal activity of the incubation system. […] Finally, 60 μL supernatant was taken and diluted with 60 μL of 50% acetonitrile before being analyzed by LC-MS/MS.

[2] = Plasma pharmacokinetics of SGC003F in rats with or without tariquidar; assay type: in vivo, rat; conditions: for clearance / AUC(0-t) / Vd / Tmax / half-life / Cmax / bioavailability: male, Sprague-Dawley, plasma; for Vd: read-out: Vss; for bioavailability: read-out: F (bioavailability)
Protocol: Adult Sprague Dawley rats (230–280 g) were obtained from Beijing Vital River Laboratory Animal Technology Co., Ltd. (Beijing, China). The animals were kept in a controlled environment with a 12 h light/dark cycle and stable temperature, and had free access to food and water, adapting for one week. All animal procedures were approved by the Experimental Animal Ethics Committee of Beijing Institute of Pharmacology and Toxicology (IACUC-DWZX-2023-P718).
SGC003F and tariquidar were dissolved in a solvent consisting of 11% isopropyl myristate, 74% polyethylene glycol 35 castor oil, and 15% diethylene glycol monoethyl ether. The stock solution concentrations were 1 mg/mL for SGC003F and 22.5 mg/mL for tariquidar. Next, the stock solution of SGC003F and tariquidar were diluted with saline at a ratio of 1:9 and 1:3.5, respectively, to achieve a working solution of SGC003F (0.1 mg/mL) and tariquidar (5 mg/mL) for oral and intravenous administration in rats.
Thirty-six male SD rats were randomly divided into 6 groups, with 6 rats in each group. Group I: SGC003F (p.o., 1 mg/kg) + blank vehicle (control group); Group II: SGC003F (p.o., 1 mg/kg) + tariquidar (i.v., 7.5 mg/kg); Group III: SGC003F (p.o., 1 mg/kg) + tariquidar (p.o., 15 mg/kg); Group IV: SGC003F (i.v., 1 mg/kg) + blank vehicle; Group V: SGC003F (i.v., 1 mg/kg) + tariquidar (i.v., 7.5 mg/kg); Group VI: SGC003F (i.v., 1 mg/kg) + tariquidar (p.o., 15 mg/kg). Oral administration required fasting for 12 h in advance and free access to water. At 0.033 (i.v.), 0.083, 0.25, 0.5, 1, 2, 4, 8, 12, and 24 h after administration, 100 μL of blood was collected intravenously and placed in heparin tubes. All blood samples were centrifuged at 2500× g for 10 min at 4 °C, and plasma was stored at −40 °C for analysis.
The main pharmacokinetic parameters, such as time to peak (tmax), half-life (t1/2), peak concentration (Cmax), and area under the curve (AUC), bioavailability (F), were calculated using a non-compartmental model with WinNonlin 8.1 software (Princeton, NJ, USA).
The elimination rate constant (ke or λz) was determined from the terminal phase of the concentration–time curve by using a semilogarithmic plot. Furthermore, the half-life (t1/2) was calculated according to this equation t1/2 = 0.693/ke(1)
Bioavailability (F) was calculated according to Equation (2):F = Dose(i.v.) × AUC(p.o.)/Dose(p.o.) × AUC(i.v.) × 100%(2)

[3] = rat, po, 1 mg/kg, SGC003F p.o. 1 mg/kg, single
[4] = rat, po, 1 mg/kg, SGC003F p.o. 1 mg/kg, with tariquidar i.v. 7.5 mg/kg
[5] = rat, po, 1 mg/kg, SGC003F p.o. 1 mg/kg, with tariquidar p.o. 15 mg/kg
[6] = rat, po, 1 mg/kg, rat plasma, SGC003F p.o. 1 mg/kg, single
[7] = rat, po, 1 mg/kg, rat plasma, SGC003F p.o. 1 mg/kg, with tariquidar i.v. 7.5 mg/kg
[8] = rat, po, 1 mg/kg, rat plasma, SGC003F p.o. 1 mg/kg, with tariquidar p.o. 15 mg/kg
[9] = rat plasma, SGC003F p.o. 1 mg/kg, tariquidar i.v. 7.5 mg/kg
[10] = rat plasma, SGC003F p.o. 1 mg/kg, tariquidar p.o. 15 mg/kg
[11] = rat, SGC003F i.v. 1 mg/kg, tariquidar i.v. 7.5 mg/kg
[12] = rat, SGC003F i.v. 1 mg/kg, tariquidar p.o. 15 mg/kg
[13] = rat, SGC003F p.o. 1 mg/kg, tariquidar i.v. 7.5 mg/kg
[14] = rat, SGC003F p.o. 1 mg/kg, tariquidar p.o. 15 mg/kg

- Metabolic stability (percentage of drug remaining over time) [1]: no significant metabolic elimination
- clearance ([2]; rat, iv, 1 mg/kg, SGC003F i.v. 1 mg/kg, single): 2.18 mL/min/kg
- clearance ([2]; rat, iv, 1 mg/kg, SGC003F i.v. 1 mg/kg, with tariquidar i.v. 7.5 mg/kg): 2.03 mL/min/kg
- clearance ([2]; rat, iv, 1 mg/kg, SGC003F i.v. 1 mg/kg, with tariquidar p.o. 15 mg/kg): 1.49 mL/min/kg
- AUC(0-t) ([2]; rat, iv, 1 mg/kg, rat plasma, SGC003F i.v. 1 mg/kg, single): 7620 ± 560 ng·h/mL
- AUC(0-t) ([2]; rat, iv, 1 mg/kg, rat plasma, SGC003F i.v. 1 mg/kg, with tariquidar i.v. 7.5 mg/kg): 8170 ± 530 ng·h/mL
- AUC(0-t) ([2]; rat, iv, 1 mg/kg, rat plasma, SGC003F i.v. 1 mg/kg, with tariquidar p.o. 15 mg/kg): 11300 ng·h/mL
- Vd ([2]; rat, iv, 1 mg/kg, rat, SGC003F i.v. 1 mg/kg, single): 0.419 ± 0.0318 L/kg
- Vd ([2]; rat, iv, 1 mg/kg, rat, SGC003F i.v. 1 mg/kg, with tariquidar i.v. 7.5 mg/kg): 0.422 ± 0.0328 L/kg
- Vd ([2]; rat, iv, 1 mg/kg, rat, SGC003F i.v. 1 mg/kg, with tariquidar p.o. 15 mg/kg): 0.382 ± 0.0266 L/kg
- Tmax [2, 3]: 1.33 ± 0.52 h
- half-life [2, 3]: 207 ± 27.6 min
- Tmax [2, 4]: 1.5 ± 0.55 h
- half-life [2, 4]: 259 ± 54.6 min
- Tmax [2, 5]: 2.33 ± 1.37 h
- half-life [2, 5]: 261 ± 21 min
- AUC(0-t) [2, 6]: 3540 ± 610 ng·h/mL
- Cmax [2, 6]: 673 ± 187 ng/mL
- AUC(0-t) [2, 7]: 5690 ± 1080 ng·h/mL
- Cmax [2, 7]: 722 ± 111 ng/mL
- AUC(0-t) [2, 8]: 10800 ng·h/mL
- Cmax [2, 8]: 1430 ± 250 ng/mL
- bioavailability ([2]; rat, po, 1 mg/kg, rat, SGC003F p.o. 1 mg/kg, single): 46.4%
- bioavailability ([2]; rat, po, 1 mg/kg, rat, SGC003F p.o. 1 mg/kg, with tariquidar i.v. 7.5 mg/kg): 69.7%
- bioavailability ([2]; rat, po, 1 mg/kg, rat, SGC003F p.o. 1 mg/kg, with tariquidar p.o. 15 mg/kg): 95.1%
- bioavailability ([2]; rat, po, rat, SGC003F p.o. 1 mg/kg, with tariquidar p.o. 15 mg/kg): 95%
- AUC0-t, Ratio 1 (with Tar (i.v.)/single) ([2]; rat plasma, SGC003F i.v. 1 mg/kg, tariquidar i.v. 7.5 mg/kg): 1.07
- AUC0-t, Ratio 2 (with Tar (p.o.)/single) ([2]; rat plasma, SGC003F i.v. 1 mg/kg, tariquidar p.o. 15 mg/kg): 1.49
- AUC0-t, Ratio 1 (with Tar (i.v.)/single) [2, 9]: 1.61
- Cmax, Ratio 1 (with Tar (i.v.)/single) [2, 9]: 1.07
- AUC0-t, Ratio 2 (with Tar (p.o.)/single) [2, 10]: 3.05
- Cmax, Ratio 2 (with Tar (p.o.)/single) [2, 10]: 2.13
- CL, Ratio 1 (with Tar (i.v.)/single) [2, 11]: 0.93
- Vss, Ratio 1 (with Tar (i.v.)/single) [2, 11]: 1.00
- CL, Ratio 2 (with Tar (p.o.)/single) [2, 12]: 0.68
- Reduction of CL versus control group [2, 12]: 32%
- Vss, Ratio 2 (with Tar (p.o.)/single) [2, 12]: 0.91
- F, Ratio 1 (with Tar (i.v.)/single) [2, 13]: 1.50
- Tmax, Ratio 1 (with Tar (i.v.)/single) [2, 13]: 1.13
- t1/2, Ratio 1 (with Tar (i.v.)/single) [2, 13]: 1.25
- F, Ratio 2 (with Tar (p.o.)/single) [2, 14]: 2.05
- Tmax, Ratio 2 (with Tar (p.o.)/single) [2, 14]: 1.75
- t1/2, Ratio 2 (with Tar (p.o.)/single) [2, 14]: 1.26
SMILES: COC(=O)Nc1c(N)nc(-c2nn(Cc3sccc3F)c3ncc(F)cc23)nc1N [SGC003F]
